Results published in patent EP0661271B1, “AZEPINE DERIVATIVES, PRODUCTION THEREOF, AND USE THEREOF AS SIGMA-RECEPTOR LIGANDS” (Asahi Kasei Kogyo Kabushiki Kaisha, priority 1992, dated 1994).

Assays:
σ-receptor = test: Binding activity for σ-receptor, [3H]DTG displacement in rat brain membrane preparation; parameters: species or system Sprague-Dowley rat; details: for Ki: rat whole brain (except cerebella) membrane, [3H]DTG 3 nM, 25°C 60 minutes, compounds tested as hydrochloride, read-out: Sigma [^3H] DTG Ki
[1] = tested on: apomorphine induced climbing; test: Suppressive activity on apomorphine induced climbing in mice; assay type: in vivo; details: 30 minutes before apomorphine 2 mg/kg s.c., ICR mice; for Suppression rate (mg/kg, p.o): apomorphine single administered group = 100 %
Method: Administering dopamine agonist, apomorphine in mouse resulted various abnormal movings, and especially, a climbing the cage has been known to be correlated with human schizophrenia.
Compounds of the present invention were administered orally or intraperitoneally in ICR mice, male (Charles River Corp.), and after 30 minutes apomorphine 2 mg/kg was administered subcutaneously. Climbing behaviors of 3 minutes after 20-23 minutes of apomorphine administration were observed. Climbing behavior was observed by entering the mice in stainless steel made wire netting cage and measuring a time remaining above the upper part of half part of the cage at observing. A climbing time of apomorphine single administered group is set as 100 % and shortened time by administering the drug is shown in suppression rate.

Compound | Ki (σ-receptor) | other results
CC1(C)C2CC[C@]1(C)CN(CCC1C3CC4CC(C3)C(c3ccccc3)C1C4)C2 (stereo partly drawn) [Example 28, (1S)-3-[2-(4-phenyl-2-adamantyl)ethyl]-1,8,8-trimethyl-3-azabicyclo [3.2.1] octane] | – | Suppression rate (mg/kg, p.o) ([1]; 30 mg/kg p.o.): 74 % (30)
Cc1ccccc1NC(=N)Nc1ccccc1C [DTG, 1,3-di(2-tolyl) guanidine, reference compound] | – | Kd (σ-receptor; radioligand constant used to calculate Ki, read-out: Kd, affinity of radioactive ligand for receptor): 10.6 nM
CC12CC3CC(C1)CC(CCN1CC4CC[C@](C)(C1)C4(C)C)(C3)C2 [Example 19, (1S)-3-[2-(3-methyl-1-adamantyl)ethyl]-1,8,8-trimethyl-3-azabicyclo [3.2.1] octane] | 0.87 nM | –
CC1(C)C2CC[C@]1(C)CN(CCC1CCCC1)C2 [Example 3, (1S)-3-(2-cyclopentylethyl)-1,8,8-trimethyl-3-azabicyclo[3.2.1] octane] | 0.53 nM | –
CC1(C)C2CC[C@]1(C)CN(CC1CCCCC1)C2 [Example 11, (1S)-3-cyclohexylmethyl-1,8,8-trimethyl-3-azabicyclo[3.2.1] octane] | 3.63 nM | –
CN(C)CCCN1c2ccccc2Sc2ccc(Cl)cc21 [Chlorpromazine, reference compound] | – | Suppression (mg/kg, i.p.) ([1]; 1 mg/kg i.p.): 40 % (1)
CC1(C)[C@@H]2CC[C@@]1(C)CN(CCc1ccncc1)C2 [Example 48, (1R)-3-[2-(4-pyridyl) ] ethyl-1,8,8-trimethyl-3-azabicyclo [3.2.1] octane] | 15.1 nM | –
CC1(C)C2CC[C@]1(C)CN(CCc1cccnc1)C2 [Example 52, (1S)-3-[2-(3-pyridyl)ethyl]-1,8,8-trimethyl-3-azabicyclo [3.2.1] octane] | 79.5 nM | –
CC1(C)C2CC[C@]1(C)CN(CCC1CCCCCCC1)C2 [Example 8, (1S)-3-(2-cyclooctylethyl)-1,8,8-trimethyl-3-azabicyclo[3,2,1] octane] | 0.5 nM | –
CC1(C)C2CC[C@]1(C)CN(C1CCCCC1)C2 [Example 13, (1S)-3-cyclohexyl-1,8,8-trimethyl-3-azabicyclo[3.2.1] octane] | 6.37 nM | –
CC1(C)C2CC[C@@]1(C)CN(CC1CCCCC1)C2 [Example 12, (1R)-3-cyclohexylmethyl-1,8,8-trimethyl-3-azabicyclo[3.2.1] octane] | 2.53 nM | –
CC1(C)C2CC[C@]1(C)CN(CCc1ccncc1)C2 [Example 53, (1S)-3-[2-(4-pyridyl)ethyl]-1,8,8-trimethyl-3-azabicyclo [3.2.1] octane] | 21.5 nM | –
CC1(C)C2CC[C@@]1(C)CN(CCc1ccccn1)C2 [Example 47, (1R)-3-[2-(2-pyridyl)ethyl]-1,8,8-trimethyl-3-azabicyclo [3.2.1] octane] | 16.1 nM | –
CC1(C)C2CC[C@]1(C)CN(CCc1ccccn1)C2 [Example 51, (1S)-3-[2-(2-pyridyl)ethyl]-1,8,8-trimethyl-3-azabicyclo [3.2.1] octane] | 31.8 nM | –
CC1(C)C2CC[C@]1(C)CN(CCc1cccs1)C2 [Example 55, (1S)-3-[2-(2-thienyl)ethyl]-1,8,8-trimethyl-3-azabicyclo [3.2.1] octane] | 7.04 nM | –

Further lines, with some results ahead:

Ki (σ-receptor) | Compound | other results
2.22 nM | CC1(C)C2CC[C@@]1(C)CN(CCc1cccc3ccccc13)C2 [Example 45, (1R)-3-[2-(1-naphthyl)ethyl]-1,8,8-trimethyl-3-azabicyclo [3.2.1] octane] | –
0.67 nM | COC12CC3CC(C1)C(CCN1CC4CC[C@](C)(C1)C4(C)C)C(C3)C2 (stereo partly drawn) [Example 24, (1S)-3-[2-(5-methoxy-2-adamantyl)ethyl]-1,8,8-trimethyl-3-azabicyclo [3.2.1] octane] | Suppression rate (mg/kg, p.o) ([1]; 10 mg/kg p.o.): 78 % (10)
9 nM | CC1(C)[C@H]2CC[C@]1(C)CN(CCc1cccc3ccccc13)C2 [Example 49, (1S)-3-[2-(1-naphtyl)ethyl]-1,8,8-trimethyl-3-azabicyclo-[3.2.1] octane] | –
8.57 nM | CC1(C)C2CC[C@@]1(C)CN(CCc1ccc3ccccc3c1)C2 [Example 46, (1R)-3-[2-(2-naphthyl)ethyl]-1,8,8-trimethyl-3-azabicyclo [3.2.1] octane] | Suppression (mg/kg, i.p.) ([1]; 10 mg/kg i.p.): 45 % (10)
0.28 nM | CC1(C)C2CC[C@]1(C)CN(CCC1CCCCC1)C2 [Example 4, (1S)-3-(2-cyclohexylethyl)-1,8,8-trimethyl-3-azabicyclo[3.2.1] octane] | –
3.72 nM | CC1(C)C2CC[C@]1(C)CN(CCCCC1CCCCC1)C2 [Example 9, (1S)-3-(4-cyclohexyl-1-butyl)-1,8,8-trimethyl-3-azabicyclo[3.2.1] octane] | –
0.32 nM | CC1(C)C2CC[C@@]1(C)CN(CCC13CC4CC(CC(C4)C1)C3)C2 [Example 14, (1R)-3-[2-(1-adamantyl)ethyl]-1,8,8-trimethyl-3-azabicyclo[3.2.1] octane] | –
0.16 nM | CC1(C)C2CC[C@@]1(C)CN(CCC1CCCCC1)C2 [Example 6, (1R)-3-(2-cyclohexylethyl)-1,8,8-trimethyl-3-azabicyclo[3.2.1] octane] | –
28.3 nM | CC1(C)C2CC[C@]1(C)CN(CCc1ccc3ccccc3c1)C2 [Example 50, (1S)-3-[2-(2-naphthyl)ethyl]-1,8,8-trimethyl-3-azabicyclo [3.2.1] octane] | Suppression (mg/kg, i.p.) ([1]; 1 mg/kg i.p.): 50 % (1)
4.16 nM | CC1(C)[C@H]2CC[C@]1(C)CN(CC13CC4CC(CC1C4)C3)C2 [Example 20, (1S)-3-(3-noradamantylmethyl)-1,8,8-trimethyl-3-azabicyclo[3.2.1] octane] | –
0.92 nM | CC1(C)C2CC[C@]1(C)CN(CCCC1CCCCC1)C2 [Example 10, (1S)-3-(3-cyclohexylpropyl)-1,8,8-trimethyl-3-azabicyclo[3.2.1] octane] | –
0.26 nM | CC1(C)C2CC[C@]1(C)CN(CCC13CC4CC(CC(C4)C1)C3)C2 [Example 1, (1S)-3-[2-(1-adamantyl)ethyl]-1,8,8-trimethyl-3-azabicyclo [3.2.1] octane] | Suppression rate (mg/kg, p.o) ([1]; 30 mg/kg p.o.): 37 % (30)
1.6 nM | CC1(C)C2CC[C@]1(C)CN(CCC1C3CC4CC(C3)C(O)C1C4)C2 (stereo partly drawn) [Example 27, (1S)-3-[2-(4-hydroxy-2-adamantyl)ethyl]-1,8,8-trimethyl-3-azabicyclo [3.2.1] octane] | –
0.57 nM | CC1(C)C2CC[C@]1(C)CN(CCC1CCCCCC1)C2 [Example 7, (1S)-3-(2-cycloheptylethyl)-1,8,8-trimethyl-3-azabicyclo[3.2.1] octane] | –
0.88 nM | CC1(C)C2CC[C@]1(C)CN(CCC1C3CCCC1CCC3)C2 (stereo partly drawn) [Example 21, (1S)-3-[2-(bicyclo [3.3.1]nonan-9-yl)-1-ethyl]-1,8,8-trimethyl-3-azabicyclo [3.2.1] octane] | Suppression rate (mg/kg, p.o) ([1]; 30 mg/kg p.o.): 54 % (30)
0.39 nM | (1S)-3-[2-(1-norbornyl)ethyl]-1,8,8-trimethyl-3-azabicyclo [3,2,1] octane [Example 2] | –
2.23 nM | CC1CCC(CCN2CC3CC[C@](C)(C2)C3(C)C)CC1 (stereo partly drawn) [Example 18, (1S)-3-[2-(4-methylcyclohexyl)ethyl]-1,8,8-trimethyl-3-azabicyclo [3.2.1] octane] | –
0.41 nM | CC1(C)C2CC[C@@]1(C)CN(CCC1C3CC4CC(C3)CC1C4)C2 (stereo partly drawn) [Example 16, (1R)-3-[2-(2-adamantyl)ethyl]-1,8,8-trimethyl-3-azabicyclo [3.2.1] octane] | Suppression rate (mg/kg, p.o) ([1]; 30 mg/kg p.o.): 79 % (30)
0.32 nM | CC1(C)C2CC[C@]1(C)CN(CCC1C3CC4CC(C3)CC1C4)C2 (stereo partly drawn) [Example 15, (1S)-3-[2-(2-adamantyl)ethyl]-1,8,8-trimethyl-3-azabicyclo[3.2.1] octane] | Suppression rate (mg/kg, p.o) ([1]; 10 mg/kg p.o.): 78 % (10)
0.44 nM | CC1(C)C2CC[C@]1(C)CN(CCC1C3CC4CC1CC(O)(C4)C3)C2 (stereo partly drawn) [Example 23, (1S)-3-[2-(5-hydroxy-2-adamantyl)ethyl]-1,8,8-trimethyl-3-azabicyclo [3.2.1] octane] | Suppression rate (mg/kg, p.o) ([1]; 10 mg/kg p.o.): 69 % (10)
0.58 nM | CC1(C)C2CC[C@]1(C)CN(CCC1C3CC4CC1CC(Cl)(C4)C3)C2 (stereo partly drawn) [Example 25, (1S)-3-[2-(5-chloro-2-adamantyl)ethyl]-1,8,8-trimethyl-3-azabicyclo [3.2.1] octane] | Suppression rate (mg/kg, p.o) ([1]; 30 mg/kg p.o.): 43 % (30)
